Experimental findings from the NIST ThermoML archive (doi:10.1016/j.fluid.2014.07.039) are described below.

For orientation: mass density means mass per unit of volume. One may read the surface tension liquid-gas as the work needed to enlarge the surface of a liquid by unit area.

For data set [1] the following is noted: 344.15 K; for mass density: Vibrating tube method; for surface tension liquid-gas: Pendant drop shape.
The conditions of data set [2]: 344.15 K, Liquid, pendant drop shape.

SMILES strings stand for the structures. Numbers after ± are expanded uncertainties.

In the case of `CCCCCCCCCCCC` [dodecane], the mass density in data set [1] (101.3 kPa, Liquid) was 712.1 ± 0.22 kg/m3. For the same compound, the surface tension liquid-gas in data set [1] (Liquid) was 20.72 ± 0.24 mN/m.

Turning to `CCCCCCCCCCCC` [dodecane] + O=C=O, the interfacial tension in data set [2] (100 kPa) was determined as 20.72 ± 0.02 mN/m; in data set [2] (1000 kPa), 18.54 ± 0.02 mN/m; in data set [2] (2000 kPa), 16.53 ± 0.02 mN/m; in data set [2] (3000 kPa), 14.74 ± 0.02 mN/m; in data set [2] (4000 kPa), 13.03 ± 0.02 mN/m; in data set [2] (5000 kPa), 11.31 ± 0.02 mN/m. For the same compound, the interfacial tension in data set [2] (6000 kPa) was 9.57 ± 0.02 mN/m; in data set [2] (7000 kPa), 7.82 ± 0.02 mN/m; in data set [2] (8000 kPa), 6.12 ± 0.02 mN/m; in data set [2] (9000 kPa), 4.57 ± 0.02 mN/m; in data set [2] (10000 kPa), 3.24 ± 0.02 mN/m; in data set [2] (11000 kPa), 2.26 ± 0.02 mN/m.

For `CCCCCCCCCCCCCC` [tetradecane] + O=C=O, the interfacial tension in data set [2] (100 kPa) is 22.07 ± 0.02 mN/m; in data set [2] (1000 kPa), 20.41 ± 0.02 mN/m; in data set [2] (2000 kPa), 18.55 ± 0.02 mN/m; in data set [2] (3000 kPa), 16.7 ± 0.02 mN/m; in data set [2] (4000 kPa), 14.87 ± 0.02 mN/m; in data set [2] (5000 kPa) it was 13.06 ± 0.02 mN/m. Also, the interfacial tension in data set [2] (6000 kPa) came to 11.31 ± 0.02 mN/m; in data set [2] (7000 kPa) it was 9.61 ± 0.02 mN/m; in data set [2] (8000 kPa), 8 ± 0.02 mN/m; in data set [2] (9000 kPa) it was 6.48 ± 0.02 mN/m; in data set [2] (10000 kPa), 5.07 ± 0.02 mN/m; in data set [2] (11000 kPa), 3.78 ± 0.02 mN/m. The interfacial tension is on record as 2.63 ± 0.02 mN/m in data set [2] (12000 kPa), 1.64 ± 0.02 mN/m in data set [2] (13000 kPa) and 0.82 ± 0.02 mN/m in data set [2] (14000 kPa).

For the compound `CCCCCCCCCCCCC` [tridecane], the mass density in data set [1] (101.3 kPa, Liquid) is given as 720.2 ± 0.22 kg/m3. Besides, the surface tension liquid-gas in data set [1] (Liquid) worked out at 21.56 ± 0.24 mN/m.

For `CCCCCCCCCCCCC` [tridecane] + O=C=O, the interfacial tension in data set [2] (100 kPa) is on record as 21.56 ± 0.02 mN/m; in data set [2] (1000 kPa) it was 19.68 ± 0.02 mN/m; in data set [2] (2000 kPa), 17.65 ± 0.02 mN/m; in data set [2] (3000 kPa), 15.67 ± 0.02 mN/m; in data set [2] (4000 kPa) it was 13.77 ± 0.02 mN/m; in data set [2] (5000 kPa), 11.94 ± 0.02 mN/m. Moreover, the interfacial tension in data set [2] (6000 kPa) is on record as 10.18 ± 0.02 mN/m; in data set [2] (7000 kPa), 8.52 ± 0.02 mN/m; in data set [2] (8000 kPa), 6.95 ± 0.02 mN/m; in data set [2] (9000 kPa), 5.49 ± 0.02 mN/m; in data set [2] (10000 kPa), 4.13 ± 0.02 mN/m; in data set [2] (11000 kPa), 2.89 ± 0.02 mN/m. Further, the interfacial tension in data set [2] (12000 kPa) is given as 1.77 ± 0.02 mN/m; in data set [2] (13000 kPa), 0.78 ± 0.02 mN/m.

As for `O=C=O` [carbon dioxide], the mass density in data set [1] (101.33 kPa, Gas) is reported as 1.563 ± 0.032 kg/m3.

In the case of `CCCCCCCCCCCCCC` [tetradecane], the mass density in data set [1] (101.3 kPa, Liquid) is recorded as 727.1 ± 0.22 kg/m3. In addition, the surface tension liquid-gas in data set [1] (Liquid) was 22.07 ± 0.25 mN/m.
